Laboratory results taken from patent US20220089600A1, “TGFß INHIBITOR AND PRODRUGS” (FUNDACIÓ INSTITUT DE RECERCA BIOMÈDICA (IRB BARCELONA), priority 2018, published 2022).
pIC50, pKd: −log10 of the molar value.

Legend:
MTO129 liver metastases = experiment: Liver metastasis formation assay versus compounds 338 and 337 (FIG. 17); assay type: in vivo, mouse; conditions: FIG. 17, 1× dose, day 2 to 18, count at 21 days
Description: In another experiment (FIG. 17), we compared the in vivo therapeutic activity of compound of formula I to the related compound 338 and compound 337. […] All mice were treated from day 2 to day 18 post inoculation of tumor cells. Number of liver metastases were counted at 21 days after MTO inoculation.

HEK293T cells = experiment: In vitro cytotoxicity, XTT assay; assay type: cell-based; conditions: 24h
Description: To assess the toxicity of the compound of formula I in vitro, HEK293T cells were seeded in 96-well plates and treated for 24h with indicated compounds. DMSO was used as a control.
Cell viability was assessed by the XTT assay (Biological Industries), according to the manufacturer's instructions, incubating for 4h prior to measurement.

ALK4 (ACVR1B) = biological target: T1, ALK4 (ACVR1B) (Homo sapiens, UniProt P36896); experiment: KINOMEscan affinity, competition binding
T1 construct: purchased Eurofins (KINOMEscan service)
Description: (§1) The affinity, measured as Kd (dissociation constants), of the compound of formula I for the ALK family was determined by using the KINOMEscan™ Technology from Eurofins. Selectivity in front of ALK1 (ACVRL1), ALK2 (ACVR1), ALK3 (BMPR1A), ALK4 (ACVR1B), ALK6 (BMPR1B), ACVR2B and TGFβR2 was determined.
(§2) The assay is performed by combining three components: DNA-tagged kinase; immobilized ligand; and a test compound. The ability of the test compound to compete with the immobilized ligand is measured via quantitative PCR of the DNA tag.
(§3) Test compounds were prepared as 111× stocks in 100% DMSO. Kds were determined using an 11-point 3-fold compound dilution series with three DMSO control points being the top concentration 30 μM. […] The compounds were then diluted directly into the assays such that the final concentration of DMSO was 0.9%. All reactions performed in polypropylene 384-well plate. Each was a final volume of 0.02 ml. […] The beads were then re-suspended in elution buffer (1×PBS, 0.05% Tween 20, 0.5 μM non-biotinylated affinity ligand) and incubated at room temperature with shaking for 30 minutes. The kinase concentration in the eluates was measured by qPCR.
(§4) Dissociation constants (Kds) for test compound-kinase interactions are calculated by measuring the amount of kinase captured on the solid support as a function of the test compound concentration.

ALK5 (TGFBR1) = biological target: T2, ALK5 (TGFBR1) (Homo sapiens, UniProt P36897); experiment: KINOMEscan affinity, competition binding
T2 sequence (P36897 34-503): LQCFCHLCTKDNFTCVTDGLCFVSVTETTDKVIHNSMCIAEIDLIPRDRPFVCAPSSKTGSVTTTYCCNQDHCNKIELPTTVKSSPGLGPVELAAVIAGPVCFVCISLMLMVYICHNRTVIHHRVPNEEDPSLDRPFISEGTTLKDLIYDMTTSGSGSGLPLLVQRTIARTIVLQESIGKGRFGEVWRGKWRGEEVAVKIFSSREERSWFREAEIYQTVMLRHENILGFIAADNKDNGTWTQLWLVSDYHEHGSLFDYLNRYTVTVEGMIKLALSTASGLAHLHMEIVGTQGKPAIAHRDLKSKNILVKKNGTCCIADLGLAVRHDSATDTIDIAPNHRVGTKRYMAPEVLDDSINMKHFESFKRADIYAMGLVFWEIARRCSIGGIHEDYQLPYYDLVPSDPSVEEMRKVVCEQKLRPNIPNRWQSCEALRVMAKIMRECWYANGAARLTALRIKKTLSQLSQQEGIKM
Description: as §1, §2, §3, §4

[1] = system: TGFβ signaling (12×CAGA-Firefly_Luc reporter) in HEK293T cells; experiment: In vitro CAGA-Luciferase reporter assay; assay type: cell-based; conditions: Homo sapiens, HEK-293T, 5 ng/ml TGFB1, 16h, read-out: IC50, TGFβ signaling inhibition (CAGA-Luciferase)
Description: HEK293T cells were purchased from the ATCC and cultured in DMEM supplemented with L-glutamine and 10% fetal bovine serum (Life Technologies) at 37° C. and 5% CO2. The cells were seeded in 24-well plates and transfected with plasmids encoding 12×CAGA-Firefly_Luc and Tk-Renilla_Luc (75 and 10 ng per well, respectively), using polyethylenimine (Polysciences) as transfection reagent. After 7h, medium was replaced for starvation medium (DMEM+0.05% FBS). […] Luciferase activity was measured 16h later using the Dual Luciferase Assay kit (Promega): media were aspirated, and cells were lysed in 200 μl passive lysis buffer (kit) for 20 minutes. Bioluminescence was measured in a Berthold Lumat LB6507 luminometer (18 μl reagents, 10 seconds measurements). […]
When adding the luciferase substrate (luciferin) to the cell lysates, emission of light implies an active TGF-β pathway due to the production of pSMAD2/3-SMAD4, whereas no or little observed light would imply inhibition of the pathway by the inhibitor. Finally, the results could be normalized by the addition of Stop & Glo® which quenches the firefly luciferase enzyme/substrate and activates the Renilla transfection control, producing light which was again measured by the luminometer and used to normalize the data.

human ALK5 = biological target: T3, human ALK5 (Homo sapiens, UniProt P36897); experiment: KinaseProfiler enzymatic activity inhibition; assay type: biochemical
T3 construct: purchased Eurofins (Kinase Profiler service)
T3 sequence (P36897 34-503): T2 sequence (P36897 34-503)
Description: Briefly, human ALK5 was incubated with 8 mM MOPS pH 7.0, 0.2 mM EDTA, 1 mM MnCl2, 2 mg/mL casein, 10 mM MgAcetate and [γ-33P-ATP] (specific activity approx. 500 cpm/pmol, concentration as required). The reaction was initiated by the addition of the MgATP mix. After incubation for 40 minutes at room temperature, the reaction was stopped by the addition of a 3% phosphoric acid solution. 10 μL of the reaction was then spotted onto a P30 filtermat and washed three times for 5 minutes in 75 mM phosphoric acid and once in methanol prior to drying and scintillation counting.
Compounds were tested using a 9-point curve with half-Log serial dilutions. The top concentration tested was 10 μM. Test compounds were prepared in 100% DMSO.

T1 sequence (P36896 24-505): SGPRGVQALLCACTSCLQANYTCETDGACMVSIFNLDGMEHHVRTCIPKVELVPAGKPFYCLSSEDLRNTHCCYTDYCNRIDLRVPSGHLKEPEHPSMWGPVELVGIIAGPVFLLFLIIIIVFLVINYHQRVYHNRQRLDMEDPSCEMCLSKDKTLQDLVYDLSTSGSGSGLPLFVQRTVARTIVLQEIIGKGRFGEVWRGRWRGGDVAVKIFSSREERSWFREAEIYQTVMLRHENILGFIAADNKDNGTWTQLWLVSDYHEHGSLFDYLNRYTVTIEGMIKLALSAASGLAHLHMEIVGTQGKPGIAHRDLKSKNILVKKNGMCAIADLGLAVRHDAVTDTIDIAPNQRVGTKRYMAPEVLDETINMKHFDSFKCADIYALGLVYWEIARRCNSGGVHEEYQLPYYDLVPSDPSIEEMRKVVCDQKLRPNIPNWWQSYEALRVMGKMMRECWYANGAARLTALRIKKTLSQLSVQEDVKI

With Cc1cccc(-c2nn3c(c2-c2ccnc4ccc(O)cc24)CCC3)n1 [compound of formula I, 4-(2-(6-methylpyridin-2-yl)-5,6-dihydro-4H-pyrrolo[1,2-b]pyrazol-3-yl)quinolin-6-ol] the “potency to block the formation of metastasis compared to compound 338 and compound 337” value (MTO129 liver metastases) was “enhanced potency”, the Cell viability (HEK293T cells; 30 μM) was 93% and the Cell viability (HEK293T cells; 100 μM) was 64%. For the same molecule, the “toxicity screens including genotoxicity” value (Genotoxicity screens) was “cleared”, the Selectivity improvement (ALK4 (ACVR1B); (I) versus Galunisertib) was 1.4 and the “Selectivity against ALK5” value (ALK4 (ACVR1B); ALK4 versus ALK5) was 0.7. The “Selectivity against ALK5” value (ALK5 (TGFBR1); ALK5 versus ALK5) was 1, the pKd (ALK5 (TGFBR1); KINOMEscan) was 7.70 and the “ALK5 binding affinity, times higher than Galunisertib” value (ALK5 (TGFBR1); versus published galunisertib data) was 8.6 times. The pIC50 [1] was 6.78, the IC50 (human ALK5; KinaseProfiler, 9-point curve, top 10 μM, read-out: Enzyme activity inhibition IC50 (nM) ALK5 (TGFBR1)) was 177 nM and the “ALK5 enzymatic potency, times more potent than prodrug of formula (III)” value (human ALK5; from Table 2) was 4.7 times. The “ALK5 enzymatic potency, times more potent than prodrug of formula (IV)” value (human ALK5; from Table 2) was 12.9 times, the “ALK5 enzymatic potency, times more potent than reference compound 337” value (human ALK5; from Table 2) was 1.8 times and the “ALK5 enzymatic potency, times more potent than reference compound 338” value (human ALK5; from Table 2) was 2.1 times.
